# Measurements published in US6479435B1, “Diaryl ethers and processes for their preparation and herbicidal and desiccant compositions containing them” (ISK Americas Incorporated, priority 1997, dated 2002).
# Experiments:
# Format in all cases: in vivo
# [1] = tested on: field corn (Zea mays L., var. Dekalb 535, CORN); assay: Post-emerge greenhouse test, crop damage rating; conditions: 14 days after application
# Text: (§1) A standard greenhouse herbicide activity screening system was used to evaluate the herbicidal efficacy and crop safety of these test compounds. Six broadleaf weed species including redroot pigweed (Amaranthus retroflexus, AMARE), velvetleaf (Abutilon theophrasti, ABUTH), sicklepod (Cassia obtusifolia, CASOB), ivyleaf morningglory (Ipomoea hederacea, IPOHE), lambsquarters (Chenopodium album, CHEAL) and common ragweed (Ambrosia artemisiifolia L., AMBEL) were used as test species. Four grass weed species including green foxtail (Setaria viridis, SETVI), barnyardgrass (Echinochloa crusgalli, ECHCG), Johnsongrass (Sorghum halepense, SORHA), and large crabgrass (Digitaria sanguinalis, DIGSA) were also used. In addition, three crop species, field corn (Zea mays L., var. Dekalb 535, CORN), soybean (Glycine max L., var. Pella 86, SOY), and upland rice (Oryza sp., var.Tebonnet, RICE) were included.
# (§2) All test compounds were dissolved in acetone and applied to the test units in a volume of 187 l/ha. Test materials were applied at rates ranging from 125 g ai/ha to 1000 g ai/ha using a track sprayer equipped with a TJ8001E even flow flat fan spray nozzle. Plants were arranged on a shelf so that the top of the canopy (post-emerge) or top of the soil surface (pre-emerge) was 40-45 cm below the nozzle. Pressurized air was used to force the test solution through the nozzle as it was mechanically advanced (via electrically driven chain drive) over the top of all test plants/pots. This application simulates a typical commercial field herbicide application.
# (§3) In the post-emerge test, a commercial non-ionic surfactant was also included (0.25% v/v) to enhance wetting of the leaf surfaces Qf target plants at rates ranging from 63 g ai/ha to 1000 g ai/ha. For post-emerge tests, seeds were planted 8-21 days prior to the test to allow emergence and good foliage development prior to application of the test substances. At the time of the post-emerge application, plants of all species were usually at the 2-3 leaf stage of development. Post-emerge test units were always bottom-watered.
# (§4) At 14 days after application of the test materials, phytotoxicity ratings were recorded. A rating scale of 0-100 was used as previously described in Research Methods in Weed Science, 2nd edition, B. Truelove, Ed., Southern Weed Science Society, Auburn University, Auburn, Ala., 1977. Briefly, “0” corresponds to no damage and “100” corresponds to complete death of all plants in the test unit. This scale was used both to determine efficacy against weed species and damage to crop species. Herbicide activity data for various compounds of this invention, which are shown by compound number in Tables 1-9, are shown in Tables 13 and 14.
# [2] = tested on: upland rice (Oryza sp., var.Tebonnet, RICE); assay: Post-emerge greenhouse test, crop damage rating; conditions: 14 days after application
# Text: as §1, §2, §3, §4
# [3] = tested on: redroot pigweed (Amaranthus retroflexus, AMARE); assay: Post-emerge greenhouse herbicide test, phytotoxicity rating; conditions: 14 days after application
# Text: as §1, §2, §3, §4
# [4] = tested on: green foxtail (Setaria viridis, SETVI); assay: as above; conditions: 14 days after application
# Text: as §1, §2, §3, §4
# [5] = tested on: lambsquarters (Chenopodium album, CHEAL); assay: as above; conditions: 14 days after application
# Text: as §1, §2, §3, §4
# [6] = tested on: ivyleaf morningglory (Ipomoea hederacea, IPOHE); assay: as above; conditions: 14 days after application
# Text: as §1, §2, §3, §4
# [7] = tested on: large crabgrass (Digitaria sanguinalis, DIGSA); assay: as above; conditions: 14 days after application
# Text: as §1, §2, §3, §4
# [8] = tested on: velvetleaf (Abutilon theophrasti, ABUTH); assay: as above; conditions: 14 days after application
# Text: as §1, §2, §3, §4
# [9] = tested on: barnyardgrass (Echinochloa crusgalli, ECHCG); assay: as above; conditions: 14 days after application
# Text: as §1, §2, §3, §4
# [10] = tested on: sicklepod (Cassia obtusifolia, CASOB); assay: as above; conditions: 14 days after application
# Text: as §1, §2, §3, §4
# [11] = tested on: Johnsongrass (Sorghum halepense, SORHA); assay: as above; conditions: 14 days after application
# Text: as §1, §2, §3, §4
# [12] = tested on: field corn (Zea mays L., var. Dekalb 535, CORN); assay: Pre-emerge greenhouse test, crop damage rating; conditions: 14 days after application, rating scale 0-100
# Text: as §1
# (§5) All plants were grown in 10 cm square plastic pots which were filled with a sandy loam soil mix. For preemerge tests, seeds were planted one day prior to application of the test compounds. Immediately after application, test units of the pre-emerge applications were watered at the soil surface to incorporate the test materials. Subsequently, these test units were bottom-watered.
# as §2, §4
# [13] = tested on: upland rice (Oryza sp., var.Tebonnet, RICE); assay: Pre-emerge greenhouse test, crop damage rating; conditions: 14 days after application, rating scale 0-100
# Text: as §1, §5, §2, §4
# [14] = tested on: soybean (Glycine max L., var. Pella 86, SOY); assay: Pre-emerge greenhouse test, crop damage rating; conditions: 14 days after application, rating scale 0-100
# Text: as §1, §5, §2, §4
# [15] = tested on: redroot pigweed (Amaranthus retroflexus, AMARE); assay: Pre-emerge greenhouse herbicide test, phytotoxicity rating; conditions: 14 days after application, rating scale 0-100
# Text: as §1, §5, §2, §4
# [16] = tested on: green foxtail (Setaria viridis, SETVI); assay: as above; conditions: 14 days after application, rating scale 0-100
# Text: as §1, §5, §2, §4
# [17] = tested on: lambsquarters (Chenopodium album, CHEAL); assay: as above; conditions: 14 days after application, rating scale 0-100
# Text: as §1, §5, §2, §4
# [18] = tested on: ivyleaf morningglory (Ipomoea hederacea, IPOHE); assay: as above; conditions: 14 days after application, rating scale 0-100
# Text: as §1, §5, §2, §4
# [19] = tested on: large crabgrass (Digitaria sanguinalis, DIGSA); assay: as above; conditions: 14 days after application, rating scale 0-100
# Text: as §1, §5, §2, §4
# [20] = tested on: velvetleaf (Abutilon theophrasti, ABUTH); assay: as above; conditions: 14 days after application, rating scale 0-100
# Text: as §1, §5, §2, §4
# [21] = tested on: barnyardgrass (Echinochloa crusgalli, ECHCG); assay: as above; conditions: 14 days after application, rating scale 0-100
# Text: as §1, §5, §2, §4
# [22] = tested on: sicklepod (Cassia obtusifolia, CASOB); assay: as above; conditions: 14 days after application, rating scale 0-100
# Text: as §1, §5, §2, §4
# [23] = tested on: Johnsongrass (Sorghum halepense, SORHA); assay: as above; conditions: 14 days after application, rating scale 0-100
# Text: as §1, §5, §2, §4
# [24] = tested on: soybean (Glycine max L., var. Pella 86, SOY); assay: Post-emerge greenhouse test, crop damage rating; conditions: 14 days after application
# Text: as §1, §2, §3, §4
smiles,measurement,setting,value
"CCN1CC(=O)N(c2cc(Oc3ncccc3C(F)(F)F)c(Cl)cc2F)C1=O [Compound 8-1, 3-[4-chloro-2-fluoro-5-(trifluoromethyl-2-pyridyloxy)phenyl]-1-ethylimidazolidine-2,4-dione]",CORN crop damage rating (0-100),[1]; 500 g al/ha,0
same,RICE crop damage rating (0-100),[2]; 500 g al/ha,0
same,AMARE phytotoxicity rating (0-100),[3]; 500 g al/ha,40
same,SETVI phytotoxicity rating (0-100),[4]; 500 g al/ha,10
same,CHEAL phytotoxicity rating (0-100),[5]; 500 g al/ha,85
same,IPOHE phytotoxicity rating (0-100),[6]; 500 g al/ha,70
same,DIGSA phytotoxicity rating (0-100),[7]; 500 g al/ha,0
same,ABUTH phytotoxicity rating (0-100),[8]; 500 g al/ha,90
same,ECHCG phytotoxicity rating (0-100),[9]; 500 g al/ha,0
same,CASOB phytotoxicity rating (0-100),[10]; 500 g al/ha,30
same,SORHA phytotoxicity rating (0-100),[11]; 500 g al/ha,0
same,crop damage rating CORN,[12]; 500 g ai/ha,0
same,crop damage rating RICE,[13]; 500 g ai/ha,30
same,crop damage rating SOY,[14]; 500 g ai/ha,0
same,phytotoxicity rating AMARE,[15]; 500 g ai/ha,100
same,phytotoxicity rating SETVI,[16]; 500 g ai/ha,85
same,phytotoxicity rating CHEAL,[17]; 500 g ai/ha,100
same,phytotoxicity rating IPOHE,[18]; 500 g ai/ha,30
same,phytotoxicity rating DIGSA,[19]; 500 g ai/ha,100
same,phytotoxicity rating ABUTH,[20]; 500 g ai/ha,95
same,phytotoxicity rating ECHCG,[21]; 500 g ai/ha,40
same,phytotoxicity rating CASOB,[22]; 500 g ai/ha,70
same,phytotoxicity rating SORHA,[23]; 500 g ai/ha,60
same,SOY crop damage rating (0-100),[24]; 500 g al/ha,50
N#Cc1cccnc1Oc1cc(-n2c(=O)cc3n(c2=O)CCC3)c(F)cc1Cl [Compound 5-9],CORN crop damage rating (0-100),[1]; 1000 g al/ha,5
same,RICE crop damage rating (0-100),[2]; 1000 g al/ha,25
same,AMARE phytotoxicity rating (0-100),[3]; 1000 g al/ha,50
same,SETVI phytotoxicity rating (0-100),[4]; 1000 g al/ha,10
same,CHEAL phytotoxicity rating (0-100),[5]; 1000 g al/ha,70
same,IPOHE phytotoxicity rating (0-100),[6]; 1000 g al/ha,90
same,DIGSA phytotoxicity rating (0-100),[7]; 1000 g al/ha,0
same,ABUTH phytotoxicity rating (0-100),[8]; 1000 g al/ha,100
same,ECHCG phytotoxicity rating (0-100),[9]; 1000 g al/ha,0
same,CASOB phytotoxicity rating (0-100),[10]; 1000 g al/ha,30
same,SORHA phytotoxicity rating (0-100),[11]; 1000 g al/ha,0
same,crop damage rating CORN,[12]; 1000 g ai/ha,0
same,crop damage rating RICE,[13]; 1000 g ai/ha,50
same,crop damage rating SOY,[14]; 1000 g ai/ha,50
same,phytotoxicity rating AMARE,[15]; 1000 g ai/ha,80
same,phytotoxicity rating SETVI,[16]; 1000 g ai/ha,90
same,phytotoxicity rating CHEAL,[17]; 1000 g ai/ha,100
same,phytotoxicity rating IPOHE,[18]; 1000 g ai/ha,100
same,phytotoxicity rating DIGSA,[19]; 1000 g ai/ha,90
same,phytotoxicity rating ABUTH,[20]; 1000 g ai/ha,100
same,phytotoxicity rating ECHCG,[21]; 1000 g ai/ha,0
same,phytotoxicity rating CASOB,[22]; 1000 g ai/ha,30
same,phytotoxicity rating SORHA,[23]; 1000 g ai/ha,90
same,SOY crop damage rating (0-100),[24]; 1000 g al/ha,30
